These results are taken from patent US7273885B2, “Inhibitors of serine proteases, particularly HCV NS3-NS4A protease” (Vertex Pharmaceuticals Incorporated, priority 2002, dated 2007).

Assay [1] has as its target HCV NS3-NS4A protease (tNS3 with KK4A) (Hepatitis C virus genotype 1a, UniProt P27958). As to the kind of experiment: HCV Ki assay (HPLC microbore separation of 5AB substrate and products). It counts as biochemical. How it is done:
HPLC Microbore Method for Separation of 5AB Substrate and Products
• Substrate: • NH2-Glu-Asp-Val-Val-(alpha)Abu-Cys-Ser-Met-Ser-Tyr-COOH
A stock solution of 20 mM 5AB (or concentration of your choice) was made in DMSO w/ 0.2M DTT. This was stored in aliquots at −20 C.
Buffer: 50 mM HEPES, pH 7.8; 20% glycerol; 100 mM NaCl
Total assay volume was 100 μL
The buffer, KK4A, DTT, and tNS3 were combined; distributed 78 μL each into wells of 96 well plate. This was incubated at 30 C for ˜5–10 min.
2.5 μL of appropriate concentration of test compound was dissolved in DMSO (DMSO only for control) and added to each well. This was incubated at room temperature for 15 min.
Initiated reaction by addition of 20 μL of 250 μM 5AB substrate (25 μM concentration is equivalent or slightly lower than the Km for 5AB).
Incubated for 20 min at 30 C.
Terminated reaction by addition of 25 μL of 10% TFA
Transferred 120 μL aliquots to HPLC vials
Separated SMSY product from substrate and KK4A by the following method:
Microbore Separation Method:
Instrumentation: Agilent 1100
• Degasser G1322A • Binary pump G1312A • Autosampler G1313A • Column thermostated chamber G1316A • Diode array detector G1315A Column:
Phenomenex Jupiter; 5 micron C18; 300 angstroms; 150×2 mm; P/O 00F-4053-B0 • Column thermostat: 40 C • Injection volume: 100 μL • Solvent A=HPLC grade water+0.1% TFA • Solvent B=HPLC grade acetonitrile+0.1% TFA
• Stop time: 17 min • Post-run time: 10 min.

Assay [2] concerns Cells containing hepatitis C virus (HCV) replicon. Description: HCV replicon cell assay (Taqman RT-PCR of HCV RNA). It is filed as cell-based. How it is done: HCV Replicon Cell Assay Protocol
Cells containing hepatitis C virus (HCV) replicon were maintained in DMEM containing 10% fetal bovine serum (FBS), 0.25 mg per ml of G418, with appropriate supplements (media A).
On day 1, replicon cell monolayer was treated with a trypsin:EDTA mixture, removed, and then media A was diluted into a final concentration of 100,000 cells per ml wit. 10,000 cells in 100 ul were plated into each well of a 96-well tissue culture plate, and cultured overnight in a tissue culture incubator at 37° C.
On day 2, compounds (in 100% DMSO) were serially diluted into DMEM containing 2% FBS, 0.5% DMSO, with appropriate supplements (media B). The final concentration of DMSO was maintained at 0.5% throughout the dilution series.
Media on the replicon cell monolayer was removed, and then media B containing various concentrations of compounds was added. Media B without any compound was added to other wells as no compound controls.
Cells were incubated with compound or 0.5% DMSO in media B for 48 hours in a tissue culture incubator at 37° C. At the end of the 48-hour incubation, the media was removed, and the replicon cell monolayer was washed once with PBS and stored at −80° C. prior to RNA extraction.
Culture plates with treated replicon cell monolayers were thawed, and a fixed amount of another RNA virus, such as Bovine Viral Diarrhea Virus (BVDV) was added to cells in each well. RNA extraction reagents (such as reagents from RNeasy kits) were added to the cells immediately to avoid degradation of RNA. Total RNA was extracted according the instruction of manufacturer with modification to improve extraction efficiency and consistency. Finally, total cellular RNA, including HCV replicon RNA, was eluted and stored at −80° C. until further processing.
A Taqman real-time RT-PCR quantification assay was set up with two sets of specific primers and probe. One was for HCV and the other was for BVDV. Total RNA extractants from treated HCV replicon cells was added to the PCR reactions for quantification of both HCV and BVDV RNA in the same PCR well. Experimental failure was flagged and rejected based on the level of BVDV RNA in each well. The level of HCV RNA in each well was calculated according to a standard curve run in the same PCR plate. The percentage of inhibition or decrease of HCV RNA level due to compound treatment was calculated using the DMSO or no compound control as 0% of inhibition. The IC50 (concentration at which 50% inhibition of HCV RNA level is observed) was calculated from the titration curve of any given compound.
Background: Replicon systems follow genome replication, usually without infectious particles.

[3] abbreviates: 50% inhibition of HCV RNA level, 48-hour incubation, HCV replicon cells, read-out: IC50.

Like-named read-outs stand apart in the source and are kept apart here. *1 amine or outer side, *2 acyl side, *3 side chain or, on linkers, in order; H or OH if unused. Where a SMILES comes first, the peptide text is derived from it. [ ]: non-standard residue; d: D form. The star is where a group is joined. Oic = O=C(O)[C@@H]1C[C@@H]2CCCC[C@@H]2N1; NH(1S-phenylethyl) = C[C@H](N*)c1ccccc1; X1 = CCCC(N[*:1])C(=O)C(=O)[*:2]; Chg = N[C@H](C(=O)O)C1CCCCC1; Tle = CC(C)(C)[C@H](N)C(=O)O; Dap = NC[C@H](N)C(=O)O; Moc = COC(=O)*

Chain of HCV NS3-NS4A protease (tNS3 with KK4A) (P27958 1027-1208): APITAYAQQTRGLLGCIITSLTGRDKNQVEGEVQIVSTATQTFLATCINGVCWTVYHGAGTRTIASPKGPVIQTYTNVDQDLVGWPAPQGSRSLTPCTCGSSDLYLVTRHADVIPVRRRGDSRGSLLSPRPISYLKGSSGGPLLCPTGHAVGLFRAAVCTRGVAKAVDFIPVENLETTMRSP

The Ki is the equilibrium dissociation constant of an inhibitor or competing ligand from its target. Low values mean a stronger hold on the target, high ones a looser hold on the target. For orientation: IC50 means the midpoint of a concentration-inhibition curve. On to `CCC[C@H](NC(=O)[C@@H]1C[C@@H]2CCCC[C@@H]2N1C(=O)[C@@H](NC(=O)[C@@H](NC(=O)c1ccn[nH]1)C1CCCCC1)C(C)(C)C)C(=O)C(=O)NC1CC1` [Compound 15a], for which the Ki in assay [1] is less than 500 nM. Also, the IC50 in assay [2] (setting [3]) is less than 500 nM.
Consider `CCC[C@H](NC(=O)[C@@H]1C[C@@H]2CCCC[C@@H]2N1C(=O)[C@@H](NC(=O)[C@@H](NC(=O)[C@@](C)(O)c1ccccc1)C1CCCCC1)C(C)(C)C)C(=O)C(=O)NC1CC1` [Compound 19a], for which the Ki in assay [1] was less than 500 nM. The IC50 in assay [2] (setting [3]) lay within 500 to 1000 nM.
`CCC[C@H](NC(=O)[C@@H]1C[C@@H]2CCCC[C@@H]2N1C(=O)[C@@H](NC(=O)[C@@H](NC(=O)c1cc([N+](=O)[O-])n[nH]1)C1CCCCC1)C(C)(C)C)C(=O)C(=O)NC1CC1` [Compound 14a] gave a Ki in assay [1] of less than 500 nM. Further, the IC50 in assay [2] (setting [3]) lay within 1000 to 5000 nM.
In assay [1], `CCCC(NC(=O)[C@@H]1C[C@@H]2CCCC[C@@H]2N1C(=O)[C@@H](NC(=O)[C@@H](NC(=O)[C@H](CNC(=O)OC)NC(=O)OC)C1CCCCC1)C(C)(C)C)C(=O)C(=O)N[C@@H](C)c1ccccc1` (stereo partly drawn) [Compound 9a] (Moc-[Dap](Moc)[Chg][Tle][Oic][X1]-{NH(1S-phenylethyl)}) yielded a Ki of less than 500 nM. Also, the IC50 in assay [2] (setting [3]) is less than 500 nM.
On to `CCC[C@H](NC(=O)[C@@H]1C[C@@H]2CCCC[C@@H]2N1C(=O)[C@@H](NC(=O)[C@@H](NC(=O)c1cnc2ccccc2n1)C1CCCCC1)C(C)(C)C)C(=O)C(=O)NC1CC1` [Compound 35a], for which the inhibitory constant (Ki) in assay [1] was less than 500 nM. Further, the IC50 in assay [2] (setting [3]) was in the range of 1000 to 5000 nM.
For `CCC[C@H](NC(=O)[C@@H]1C[C@@H]2CCCC[C@@H]2N1C(=O)[C@@H](NC(=O)[C@@H](NC(=O)c1cccnc1)C1CCCCC1)C(C)(C)C)C(=O)C(=O)NC1CC1` [Compound 31a] the same measures were less than 500 nM and 1000 to 5000 nM.
For `CC(=O)c1c(C(=O)N[C@H](C(=O)N[C@H](C(=O)N2[C@H](C(=O)NC(CCC(F)(F)F)C(=O)C(=O)NC3CC3)C[C@@H]3CCCC[C@@H]32)C(C)(C)C)C2CCCCC2)[nH]c(C)c1C` (stereo partly drawn) [Compound 45a] the same measures were less than 500 nM and less than 500 nM.
The matching figures for `CCC[C@H](NC(=O)[C@@H]1C[C@@H]2CCCC[C@@H]2N1C(=O)[C@@H](NC(=O)[C@@H](NC(=O)c1ccoc1)C1CCCCC1)C(C)(C)C)C(=O)C(=O)NC1CC1` [Compound 26a]: less than 500 nM and 1000 to 5000 nM.
`CCC[C@H](NC(=O)[C@@H]1[C@@H](C2CCCCC2)CCN1C(=O)[C@@H](NC(=O)[C@@H](NC(=O)c1[nH]c(C)c(C)c1C(C)=O)C1CCCCC1)C(C)(C)C)C(=O)C(=O)NC1CC1` [Compound 63] registered a Ki in assay [1] of less than 500 nM. Also, the IC50 in assay [2] (setting [3]) was 500 to 1000 nM.
For `CCC[C@H](NC(=O)[C@@H]1C[C@@H]2CCCC[C@@H]2N1C(=O)[C@@H](NC(=O)[C@@H](NC(=O)c1cc(CC)c(C(C)=O)[nH]1)C1CCCCC1)C(C)(C)C)C(=O)C(=O)NC1CC1` [Compound 42a] the same measures were less than 500 nM and less than 500 nM.
For `CCCC(NC(=O)[C@@H]1C[C@@H]2CCCC[C@@H]2N1C(=O)[C@@H](NC(=O)[C@@H](NC(=O)c1cnccn1)C1CCCCC1)C(C)(C)C)C(=O)C(=O)NC1CC1` (stereo partly drawn) [Compound 4a] the same measures were less than 500 nM and 500 to 1000 nM.
As for `CCCC(NC(=O)[C@@H]1C[C@@H]2CCCC[C@@H]2N1C(=O)[C@@H](NC(=O)[C@@H](NC(=O)c1cnccn1)C1CCCCC1)C(C)C)C(=O)C(=O)NC1CC1` (stereo partly drawn) [Compound 3a], the Ki in assay [1] is less than 500 nM. In assay [2] (48 h), this compound returned an IC50 of 1000 to 5000 nM.
`CCC[C@H](NC(=O)[C@@H]1C[C@@H]2CCCC[C@@H]2N1C(=O)[C@@H](NC(=O)[C@@H](NC(=O)c1ccncc1)C1CCCCC1)C(C)(C)C)C(=O)C(=O)NC1CC1` [Compound 32a] yielded a Ki in assay [1] of less than 500 nM. The IC50 in assay [2] (setting [3]) was 1000 to 5000 nM.
For `CCC[C@H](NC(=O)[C@@H]1C[C@@H]2CCCC[C@@H]2N1C(=O)[C@@H](NC(=O)[C@@H](NC(=O)c1ccco1)C1CCCCC1)C(C)(C)C)C(=O)C(=O)NC1CC1` [Compound 27a] the same measures were less than 500 nM and 1000 to 5000 nM.
The matching figures for `CCC[C@H](NC(=O)[C@@H]1C[C@@H]2CCCC[C@@H]2N1C(=O)[C@@H](NC(=O)[C@@H](NC(=O)C1(O)CCCC1)C1CCCCC1)C(C)(C)C)C(=O)C(=O)NC1CC1` [Compound 22a]: 500 to 1000 nM and 1000 to 5000 nM.
